Source: PubChem BioAssay (NCI)
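1) Cells in 96-well plates. 2) Compound, 48 h, 5 concentrations. 3) Linear interpolation between surrounding doses. 4) Unreached endpoint = highest concentration. GI50 marks 50% less growth. Definition used: TGI = concentration required for complete inhibition of growth.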

How the values were obtained:
Assay in all cases: growth of human tumour cells (NCI), 48 h
HL-60(TB) leukemia = test system: HL-60(TB) leukemia
SW-620 colon = test system: SW-620 colon
786-0 renal = test system: 786-0 renal
SN12C renal = test system: SN12C renal
M14 melanoma = test system: M14 melanoma
NCI-H226 lung = test system: NCI-H226 lung
LXFL 529 NSCLC = test system: LXFL 529 NSCLC
K-562 leukemia = test system: K-562 leukemia
SNB-19 CNS = test system: SNB-19 CNS
UACC-257 melanoma = test system: UACC-257 melanoma
DMS 273 small cell lung = test system: DMS 273 small cell lung
LOX IMVI melanoma = test system: LOX IMVI melanoma
HCT-15 colon = test system: HCT-15 colon
UACC-62 melanoma = test system: UACC-62 melanoma
SK-MEL-28 melanoma = test system: SK-MEL-28 melanoma
OVCAR-4 ovarian = test system: OVCAR-4 ovarian
SF-295 CNS = test system: SF-295 CNS
U251 CNS = test system: U251 CNS
OVCAR-5 ovarian = test system: OVCAR-5 ovarian
CAKI-1 renal = test system: CAKI-1 renal
MOLT-4 leukemia = test system: MOLT-4 leukemia
SNB-78 CNS = test system: SNB-78 CNS
IGROV1 ovarian = test system: IGROV1 ovarian
SNB-75 CNS = test system: SNB-75 CNS
UO-31 renal = test system: UO-31 renal
HT29 colon = test system: HT29 colon
SF-268 CNS = test system: SF-268 CNS
HOP-62 NSCLC = test system: HOP-62 NSCLC
DLD-1 colon = test system: DLD-1 colon
DMS 114 small cell lung = test system: DMS 114 small cell lung
NCI-H460 lung = test system: NCI-H460 lung
NCI-H522 lung = test system: NCI-H522 lung
SR leukemia = test system: SR leukemia
A549 NSCLC = test system: A549 NSCLC
A498 renal = test system: A498 renal
KM20L2 colon = test system: KM20L2 colon
SK-MEL-2 melanoma = test system: SK-MEL-2 melanoma
COLO 205 colon = test system: COLO 205 colon
KM12 colon = test system: KM12 colon
HCC-2998 colon = test system: HCC-2998 colon
CCRF-CEM leukemia = test system: CCRF-CEM leukemia
EKVX NSCLC = test system: EKVX NSCLC
SF-539 CNS = test system: SF-539 CNS
ACHN renal = test system: ACHN renal
OVCAR-3 ovarian = test system: OVCAR-3 ovarian
RXF 393 renal = test system: RXF 393 renal
TK-10 renal = test system: TK-10 renal
HCT-116 colon = test system: HCT-116 colon
RXF-631 renal = test system: RXF-631 renal
RPMI-8226 leukemia = test system: RPMI-8226 leukemia
OVCAR-8 ovarian = test system: OVCAR-8 ovarian
NCI-H23 lung = test system: NCI-H23 lung
SK-MEL-5 melanoma = test system: SK-MEL-5 melanoma
HOP-92 NSCLC = test system: HOP-92 NSCLC
MALME-3M melanoma = test system: MALME-3M melanoma
XF 498 CNS = test system: XF 498 CNS
M19-MEL melanoma = test system: M19-MEL melanoma
SK-OV-3 ovarian = test system: SK-OV-3 ovarian
HOP-18 NSCLC = test system: HOP-18 NSCLC

With `COc1ccc2c(CCNC(C)=O)c(C(C)=O)[nH]c2c1` the TGI (HL-60(TB) leukemia) was over 100 µM, the TGI (SW-620 colon) was over 100 µM and the TGI (786-0 renal) was over 100 µM. It also gave a TGI (SN12C renal) of over 100 µM, a TGI (M14 melanoma) of over 100 µM and a TGI (NCI-H226 lung) of over 100 µM. It also gave a TGI (LXFL 529 NSCLC) of over 100 µM, a TGI (K-562 leukemia) of over 100 µM and a TGI (SNB-19 CNS) of over 100 µM. For the same molecule, the TGI (UACC-257 melanoma) was over 100 µM, the TGI (DMS 273 small cell lung) was over 100 µM and the TGI (LOX IMVI melanoma) was over 100 µM. The TGI (HCT-15 colon) was over 100 µM, the TGI (UACC-62 melanoma) was over 100 µM and the TGI (SK-MEL-28 melanoma) was over 100 µM. It also gave a TGI (OVCAR-4 ovarian) of over 100 µM, a TGI (SF-295 CNS) of over 100 µM and a TGI (U251 CNS) of over 100 µM. The TGI (OVCAR-5 ovarian) was over 100 µM, the TGI (CAKI-1 renal) was over 100 µM and the TGI (MOLT-4 leukemia) was over 100 µM. The TGI (SNB-78 CNS) was over 100 µM, the TGI (IGROV1 ovarian) was over 100 µM and the TGI (SNB-75 CNS) was over 100 µM. It also gave a TGI (UO-31 renal) of over 100 µM, a TGI (HT29 colon) of over 100 µM and a TGI (SF-268 CNS) of over 100 µM. It also gave a TGI (HOP-62 NSCLC) of over 100 µM, a TGI (DLD-1 colon) of over 100 µM and a TGI (DMS 114 small cell lung) of over 100 µM. It also gave a TGI (NCI-H460 lung) of over 100 µM, a TGI (NCI-H522 lung) of over 100 µM and a TGI (SR leukemia) of over 100 µM. The TGI (A549 NSCLC) was over 100 µM, the TGI (A498 renal) was over 100 µM and the TGI (KM20L2 colon) was over 100 µM. For the same molecule, the TGI (SK-MEL-2 melanoma) was over 100 µM, the TGI (COLO 205 colon) was over 100 µM and the TGI (KM12 colon) was over 100 µM. It also gave a TGI (HCC-2998 colon) of over 100 µM, a TGI (CCRF-CEM leukemia) of over 100 µM and a TGI (EKVX NSCLC) of over 100 µM. The TGI (SF-539 CNS) was over 100 µM, the TGI (ACHN renal) was over 100 µM and the TGI (OVCAR-3 ovarian) was over 100 µM. For the same molecule, the TGI (RXF 393 renal) was over 100 µM, the TGI (TK-10 renal) was over 100 µM and the TGI (HCT-116 colon) was over 100 µM. For the same molecule, the TGI (RXF-631 renal) was over 100 µM, the TGI (RPMI-8226 leukemia) was over 100 µM and the TGI (OVCAR-8 ovarian) was over 100 µM.

`COc1cccc(/C=N/[N-]C(=O)c2ccncc2)c1[O-].[Ni+2].[OH3+]` showed a GI50 (HL-60(TB) leukemia) of over 100 µM, a TGI (HL-60(TB) leukemia) of over 100 µM and a GI50 (SW-620 colon) of over 100 µM. The TGI (SW-620 colon) was over 100 µM, the GI50 (786-0 renal) was over 100 µM and the TGI (786-0 renal) was over 100 µM. For the same molecule, the GI50 (SN12C renal) was over 100 µM, the TGI (SN12C renal) was over 100 µM and the GI50 (M14 melanoma) was over 100 µM. It also gave a TGI (M14 melanoma) of over 100 µM, a GI50 (NCI-H226 lung) of over 100 µM and a TGI (NCI-H226 lung) of over 100 µM. For the same molecule, the GI50 (LXFL 529 NSCLC) was over 100 µM, the TGI (LXFL 529 NSCLC) was over 100 µM and the GI50 (NCI-H23 lung) was over 100 µM. For the same molecule, the TGI (NCI-H23 lung) was over 100 µM, the GI50 (K-562 leukemia) was over 100 µM and the TGI (K-562 leukemia) was over 100 µM. It also gave a GI50 (SNB-19 CNS) of over 100 µM, a TGI (SNB-19 CNS) of over 100 µM and a GI50 (UACC-257 melanoma) of over 100 µM. It also gave a TGI (UACC-257 melanoma) of over 100 µM, a GI50 (DMS 273 small cell lung) of over 100 µM and a TGI (DMS 273 small cell lung) of over 100 µM. It also gave a GI50 (LOX IMVI melanoma) of over 100 µM, a TGI (LOX IMVI melanoma) of over 100 µM and a GI50 (SK-MEL-5 melanoma) of over 100 µM. The TGI (SK-MEL-5 melanoma) was over 100 µM, the GI50 (HCT-15 colon) was over 100 µM and the TGI (HCT-15 colon) was over 100 µM. For the same molecule, the GI50 (HOP-92 NSCLC) was over 100 µM, the TGI (HOP-92 NSCLC) was over 100 µM and the GI50 (UACC-62 melanoma) was over 100 µM. The TGI (UACC-62 melanoma) was over 100 µM, the GI50 (SK-MEL-28 melanoma) was over 100 µM and the TGI (SK-MEL-28 melanoma) was over 100 µM. For the same molecule, the GI50 (OVCAR-4 ovarian) was over 100 µM, the TGI (OVCAR-4 ovarian) was over 100 µM and the GI50 (SF-295 CNS) was over 100 µM. The TGI (SF-295 CNS) was over 100 µM, the GI50 (U251 CNS) was over 100 µM and the TGI (U251 CNS) was over 100 µM. The GI50 (OVCAR-5 ovarian) was over 100 µM, the TGI (OVCAR-5 ovarian) was over 100 µM and the GI50 (MALME-3M melanoma) was over 100 µM. It also gave a TGI (MALME-3M melanoma) of over 100 µM, a GI50 (CAKI-1 renal) of over 100 µM and a TGI (CAKI-1 renal) of over 100 µM. The GI50 (MOLT-4 leukemia) was over 100 µM, the TGI (MOLT-4 leukemia) was over 100 µM and the GI50 (SNB-78 CNS) was over 100 µM. The TGI (SNB-78 CNS) was over 100 µM, the GI50 (XF 498 CNS) was over 100 µM and the TGI (XF 498 CNS) was over 100 µM. It also gave a GI50 (IGROV1 ovarian) of over 100 µM, a TGI (IGROV1 ovarian) of over 100 µM and a GI50 (SNB-75 CNS) of over 100 µM. The TGI (SNB-75 CNS) was over 100 µM, the GI50 (UO-31 renal) was over 100 µM and the TGI (UO-31 renal) was over 100 µM. The GI50 (HT29 colon) was over 100 µM, the TGI (HT29 colon) was over 100 µM and the GI50 (SF-268 CNS) was over 100 µM. It also gave a TGI (SF-268 CNS) of over 100 µM, a GI50 (HOP-62 NSCLC) of over 100 µM and a TGI (HOP-62 NSCLC) of over 100 µM. For the same molecule, the GI50 (DLD-1 colon) was over 100 µM, the TGI (DLD-1 colon) was over 100 µM and the GI50 (DMS 114 small cell lung) was over 100 µM. The TGI (DMS 114 small cell lung) was over 100 µM, the GI50 (NCI-H460 lung) was over 100 µM and the TGI (NCI-H460 lung) was over 100 µM. The GI50 (SR leukemia) was over 100 µM, the TGI (SR leukemia) was over 100 µM and the GI50 (A549 NSCLC) was over 100 µM. The TGI (A549 NSCLC) was over 100 µM, the GI50 (A498 renal) was over 100 µM and the TGI (A498 renal) was over 100 µM. For the same molecule, the GI50 (KM20L2 colon) was over 100 µM, the TGI (KM20L2 colon) was over 100 µM and the GI50 (SK-MEL-2 melanoma) was over 100 µM. It also gave a TGI (SK-MEL-2 melanoma) of over 100 µM, a GI50 (COLO 205 colon) of over 100 µM and a TGI (COLO 205 colon) of over 100 µM. The GI50 (KM12 colon) was over 100 µM, the TGI (KM12 colon) was over 100 µM and the GI50 (M19-MEL melanoma) was over 100 µM. For the same molecule, the TGI (M19-MEL melanoma) was over 100 µM, the GI50 (HCC-2998 colon) was over 100 µM and the TGI (HCC-2998 colon) was over 100 µM. The GI50 (CCRF-CEM leukemia) was over 100 µM, the TGI (CCRF-CEM leukemia) was over 100 µM and the GI50 (EKVX NSCLC) was over 100 µM. For the same molecule, the TGI (EKVX NSCLC) was over 100 µM, the GI50 (SF-539 CNS) was over 100 µM and the TGI (SF-539 CNS) was over 100 µM. For the same molecule, the GI50 (SK-OV-3 ovarian) was over 100 µM, the TGI (SK-OV-3 ovarian) was over 100 µM and the GI50 (ACHN renal) was over 100 µM. The TGI (ACHN renal) was over 100 µM, the GI50 (OVCAR-3 ovarian) was over 100 µM and the TGI (OVCAR-3 ovarian) was over 100 µM. The GI50 (TK-10 renal) was over 100 µM, the TGI (TK-10 renal) was over 100 µM and the GI50 (HCT-116 colon) was over 100 µM. For the same molecule, the TGI (HCT-116 colon) was over 100 µM, the GI50 (RPMI-8226 leukemia) was over 100 µM and the TGI (RPMI-8226 leukemia) was over 100 µM. It also gave a GI50 (HOP-18 NSCLC) of over 100 µM, a TGI (HOP-18 NSCLC) of over 100 µM and a GI50 (OVCAR-8 ovarian) of over 100 µM. The TGI (OVCAR-8 ovarian) was over 100 µM.
